Measurements reported in US20200069592A1, “HSP90 INHIBITOR ORAL FORMULATIONS AND RELATED METHODS” (Samus Therapeutics, Inc., priority 2017, published 2020).
Read-outs that look alike come from different tables or passages of the source. Marks after values point to notes of the source that are not given here.

What was measured:
[1] = Tolerability (body weight, toxicity, maximum tolerated dose) in the Example 5 rat study; type: in vivo; conditions: female, Sprague Dawley, rat, in vivo, iv
Description: Ninety-four total animals were observed thereafter. The parenteral administration is performed by tail vein injection.

[2] = Solubility / compatibility testing in drinking solution vehicles and ingredients (Example 7); type: physicochemical
Text: This Example examined drinking solution vehicles for Compound 1 2HCl. Initially Orasweet® Sugar Free options were explored as a vehicle for Compound 1 2HCl.
ORA-Sweet®, commerically available from Perrigo, comprises purified water, sucrose, glycerine, sorbitol, and flavouring. ORA-Sweet® is buffered with citric acid and sodium phosphate and preserved with methylparaben and potassium sorbate.
ORA-Sweet® Sugar Free, commerically available from Perrigo, comprises purified water, glycerine, sorbitol, sodium saccharin, xanthan gum, and flavouring. It is buffered with citric acid and sodium citrate and preserved with methylparaben (0.03%), potassium sorbate (0.1%), and propylparaben (0.008%).
SyrSpend® SF Cherry, commercially available from Fargon, comprises purified water, modified food starch, sodium citrate, citric acid, sucralose, sodium benzoate (<0.1% preservative), sorbic acid, malic acid and simethicone.
SyrSpend® SF Alka, commercially available from Fargon, comprises modified starch, calcium carbonate and sucralose.
ORA-Blend®, commerically available from Perrigo, comprises purified water, sucrose, glycerin, sorbitol, flavoring, microcrystalline cellulose, carboxymethylcellulose sodium, xanthan gum, carrageenan, calcium sulfate, trisodium phosphate, citric acid and sodium phosphate as buffers, dimethicone antifoam emulsion and preserved with methylparaben and potassium sorbate.
ORA-Plus®, commerically available from Perrigo, comprises purified water, microcrystalline cellulose, carboxymethylcellulose sodium, xanthan gum, carrageenan, calcium sulfate, trisodium phosphate, citric acid and sodium phosphate as buffers, dimethicone antifoam emulsion and preserved with methylparaben and potassium sorbate.

[3] = Plasma pharmacokinetics after single oral dose in ORA-Plus or SyrSpend SF (Example 6), LC-MS/MS; type: in vivo, Sprague Dawley rats; conditions: for % AUC0-last test vs reference: rats, ratio of group averages; for AUC(0-t) / Cmax / Tmax / AUC(0-inf) / half-life: female, Sprague Dawley, rat, plasma, po
[4] = Body weight change / dose tolerance in the MDA-MB-468 xenograft study
Description: (§1) The animals used in this study were Nu/Nu (NU-Foxn1^nu) (athymic nude) physiologically normal female mice supplied by Charles River. At the time of inoculation, the age of the animals was 5-8 weeks. Sixty total animals were used and animals were not replaced during the course of this study. Mice were identified with a transponder. The animals were housed in individually ventilated microisolator cages and allowed to acclimate for at least 5-7 days. The animals were maintained under pathogen-free conditions and given Teklad Global Diet® 2920x irradiated pellets for food and autoclaved water ad libitum.
(§2) Compound ldihydrochloride (2HCl) was provided as a crystalline powder and stored at 2-8° C. protected from light. The administered form of Compound 1 2HCl was a clear solution. For intraperitoneal administration, Compound 1 2HCl was reconstituted in PBS. For oral administration, Compound 1 2HCl was reconstituted in 0.5% Methylcellulose (MC) in water. The salt: base ratio was 1.14:1 (i.e., to obtain 100 mg of Compound 1 free base, 114 mg of Compound 1 dihydrochloride salt was weighed out). Dose levels of Compound 1 were based on the free base, not the salt. Compound 1 2HCl in administered form was prepared fresh immediately prior to use.
(§3) Animals were randomized using random equilibration of tumor volume into one of six study groups, as shown in Table 22 (Groups 1-6), with 10 animals in each group.
(§4) Group 1 was administered vehicle control alone (without Compound 1 2HCl) intraperitoneally (IP) three times weekly (TIW) until the end of the study. PBS was used as the vehicle control and was administered at a volume of 10 mL/kg.
(§5) Groups 2-6 were administered Compound 1 2HCl at a volume of 10 mL/kg three times weekly (TIW) until the end of the study with the doses as described next.
(§6) Group 2 received 75 mg/kg Compound 1 2HCl via intraperitoneal administration.
(§7) Group 3 received 75 mg/kg Compound 1 2HCl via oral administration (PO). Group 4 received 100 mg/kg Compound 1 2HCl via oral administration. Group 5 received 125 mg/kg Compound 1 2HCl via oral administration. Group 6 received 150 mg/kg Compound 1 2HCl via oral administration. […]
(§8) Tumor volume and body weight were measured twice weekly with gross observations daily. […]
(§9) For data analysis, simple statistics (ANOVA) will be conducted on tumor volumes to verify significance of treatment groups relative to control. Growth curves will be constructed and percent tumor growth inhibition (TGI) will be calculated as a means to assess the effect of the single-agent therapy regimens. […]
(§10) The Materials and Methods used were the same as discussed above for Example 3, except for the lengths of treatment for Groups 1-4. […] Tumor growth and body weight were measured twice weekly with gross observations daily for Groups 1-5 until Day 117.

in vivo = conditions: female, Nu/Nu (NU-Foxn1^nu) athymic nude, mouse, ip
Description: as §1, §2, §3, §4, §5, §6, §7, §8, §9, §10

[5] = G5: 2HCl, 24 mg/kg single oral dose, ORA-plus, rat plasma, n = 4
[6] = G6: 2HCl, 48 mg/kg single oral dose, ORA-plus, rat plasma
[7] = G12: 2HCl, 24 mg/kg single oral dose, SyrSpend, rat plasma, n = 1
[8] = G13: 2HCl, 48 mg/kg single oral dose, SyrSpend, n = 2
[9] = G14: 2HCl, 60 mg/kg single oral dose, SyrSpend, n = 3
[10] = 24 mg/kg, G5: 2HCl, 24 mg/kg single oral dose, ORA-plus, rat plasma
[11] = 24 mg/kg, G5: 2HCl, 24 mg/kg single oral dose, ORA-plus, rat plasma, n = 4
[12] = 24 mg/kg, G12: 2HCl, 24 mg/kg single oral dose, SyrSpend, rat plasma
[13] = 24 mg/kg, G12: 2HCl, 24 mg/kg single oral dose, SyrSpend, rat plasma, n = 1
[14] = 48 mg/kg, G6: 2HCl, 48 mg/kg single oral dose, ORA-plus, rat plasma
[15] = 48 mg/kg, G13: 2HCl, 48 mg/kg single oral dose, SyrSpend
[16] = 48 mg/kg, G13: 2HCl, 48 mg/kg single oral dose, SyrSpend, n = 2
[17] = 60 mg/kg, G14: 2HCl, 60 mg/kg single oral dose, SyrSpend
[18] = 60 mg/kg, G14: 2HCl, 60 mg/kg single oral dose, SyrSpend, n = 3

Work on CC(C)NCCCn1c(Sc2cc3c(cc2I)OCO3)nc2c(N)ncnc21 [Compound 1 2HCl] yielded an MTD [1] of 24 mg/kg, a solubility ([2]; 50% Flavor Sweet SF in water, aqueous with cosolvent or surfactant or cyclodextrin, API in 50% Flavor Sweet SF/H2O, read-out: Solubility testing result: Precipitate at) of under 5000 µg/mL and a solubility ([2]; 50% Versa Free in water, aqueous with cosolvent or surfactant or cyclodextrin, API in 50% Versa Free/H2O, read-out: Solubility testing result: Precipitate at) of under 5000 µg/mL. The solubility ([2]; Flavor Sweet (sugar free) vehicle, aqueous with cosolvent or surfactant or cyclodextrin, API in Flavor Sweet (sugar free), read-out: Solubility testing result: Precipitate at) was under 5000 µg/mL, the “Compatibility with drinking solution vehicle” value ([2]; Orasweet Sugar Free formulations (contain xanthan gum)) was “incompatibility” and the solubility ([2]; Versa Free vehicle, aqueous with cosolvent or surfactant or cyclodextrin, API in Versa Free, read-out: Solubility testing result: Precipitate at) was under 5000 µg/mL. The solubility ([2]; glycerin in 50% water, aqueous with cosolvent or surfactant or cyclodextrin, read-out: Ingredient solubility testing) was over 10000 µg/mL, the solubility ([2]; glycerin, organic solvent or mixture, read-out: Ingredient solubility testing) was over 6000 µg/mL and the “AUC % Extrap” value [3, 5] was 5.00 ± 4.92 %. The Cl_F [3, 5] was 6.14 ± 2.32 L/h/kg, the Vz_F [3, 5] was 15.12 ± 3.53 L/kg and the “AUC % Extrap” value [3, 6] was 1.42 ± 0.79%. For the same compound, the Cl_F [3, 6] was 6.63 ± 2.82 L/h/kg, the Vz_F [3, 6] was 33.74 ± 16.37 L/kg and the “AUC % Extrap” value [3, 7] was 0.47^a %. The Cl_F [3, 7] was 4.17^a L/hr/kg, the Vz_F [3, 7] was 17.51^a L/kg and the “AUC % Extrap” value [3, 8] was 6.76 ± 5.82 %. The “Cl_F” value [3, 8] was 22.85 ± 5.76 L/h/kg, the “Vz_F” value [3, 8] was 139.42 ± 13.22 L/kg and the “AUC % Extrap” value [3, 9] was 0.69 ± 0.34 %. The “Vz_F” value [3, 9] was 27.15 ± 11.86 L/kg, the “% AUC0-last test vs reference” value ([3]; Group 5 (24 mg/kg 2HCl ORA-plus) vs Group 6 (48 mg/kg 2HCl ORA-plus)) was 53.01% and the “% AUC0-last test vs reference” value ([3]; Group 5 (24 mg/kg 2HCl ORA-plus) vs Group 12 (24 mg/kg 2HCl SyrSpend)) was 84.12%. For the same compound, the “% AUC0-last test vs reference” value ([3]; Group 6 (48 mg/kg 2HCl ORA-plus) vs Group 13 (48 mg/kg 2HCl SyrSpend)) was 298.14%, the “% AUC0-last test vs reference” value ([3]; Group 6 (48 mg/kg 2HCl ORA-plus) vs Group 14 (60 mg/kg 2HCl SyrSpend)) was 62.79% and the “% AUC0-last test vs reference” value ([3]; Group 12 (24 mg/kg 2HCl SyrSpend) vs Group 13 (48 mg/kg 2HCl SyrSpend)) was 187.87%. For the same compound, the “% AUC0-last test vs reference” value ([3]; Group 12 (24 mg/kg 2HCl SyrSpend) vs Group 14 (60 mg/kg 2HCl SyrSpend)) was 39.57%, the “% AUC0-last test vs reference” value ([3]; Group 13 (48 mg/kg 2HCl SyrSpend) vs Group 14 (60 mg/kg 2HCl SyrSpend)) was 21.06% and the AUC(0-t) [3, 10] was 4200 ± 1120 ng·h/mL. The Cmax [3, 10] was 1070 ± 221 ng/mL, the Tmax [3, 10] was 2.4 ± 0.89 h and the AUC(0-inf) [3, 11] was 4250 ± 1230 ng·h/mL. For the same compound, the half-life [3, 11] was 1.8 ± 0.47 h, the AUC(0-t) [3, 12] was 5000 ± 1260 ng·h/mL and the Cmax [3, 12] was 1030 ± 151 ng/mL. For the same compound, the Tmax [3, 12] was 3.2 ± 1.1 h, the AUC(0-inf) [3, 13] was 5750 ng·h/mL and the half-life [3, 13] was 2.91 h. The AUC(0-inf) [3, 14] was 8040 ± 2410 ng·h/mL, the AUC(0-t) [3, 14] was 7930 ± 2380 ng·h/mL and the Cmax [3, 14] was 1120 ± 429 ng/mL. It also gave a Tmax [3, 14] of 2.8 ± 1.1 h, a half-life [3, 14] of 3.5 ± 0.53 h and an AUC(0-t) [3, 15] of 2660 ± 946 ng·h/mL. For the same compound, the Cmax [3, 15] was 1990 ± 787 ng/mL, the Tmax [3, 15] was 0.7 ± 0.27 h and the AUC(0-inf) [3, 16] was 2170 ± 548 ng·h/mL. The half-life [3, 16] was 4.42 ± 1.52 h, the AUC(0-t) [3, 17] was 12600 ± 5100 ng·h/mL and the Cmax [3, 17] was 1710 ± 314 ng/mL. For the same compound, the Tmax [3, 17] was 2.4 ± 2.07 h, the AUC(0-inf) [3, 18] was 11500 ± 4440 ng·h/mL and the half-life [3, 18] was 3.2 ± 0.4 h. For the same compound, the “Time point up to which all animals had quantifiable plasma levels” value ([3]; single oral dose, ORA-Plus or SyrSpend, data not shown) was at least 8 h, the Body weight change ([4]; 100 mg/kg PO, during and after treatment (to Day 117)) was “minimal effects on body weight” and the Body weight change ([4]; Group 2: 75 mg/kg IP, Day 5 and Day 8) was “greater decrease in body weight”. It also gave an MTD at 103 days (in vivo) of 75 mg/kg.
